The text below walks through data of patent US20080299587A1, “METHODS OF MEASURING INHIBITION OF PLATELET AGGREGATION BY THROMBIN RECEPTOR ANTAGONISTS” (priority 2007, published 2008).

The test system of one data set is platelet aggregation. Particulars: blood samples from patients undergoing non-urgent PCI; cited from earlier work.
For data set [1] the following is noted: Phase II clinical studies, treated patients; cited from earlier work.
Another data set has as its target T1, PAR-1 thrombin receptor (Homo sapiens, UniProt P25116).
T1 sequence (P25116 22-425): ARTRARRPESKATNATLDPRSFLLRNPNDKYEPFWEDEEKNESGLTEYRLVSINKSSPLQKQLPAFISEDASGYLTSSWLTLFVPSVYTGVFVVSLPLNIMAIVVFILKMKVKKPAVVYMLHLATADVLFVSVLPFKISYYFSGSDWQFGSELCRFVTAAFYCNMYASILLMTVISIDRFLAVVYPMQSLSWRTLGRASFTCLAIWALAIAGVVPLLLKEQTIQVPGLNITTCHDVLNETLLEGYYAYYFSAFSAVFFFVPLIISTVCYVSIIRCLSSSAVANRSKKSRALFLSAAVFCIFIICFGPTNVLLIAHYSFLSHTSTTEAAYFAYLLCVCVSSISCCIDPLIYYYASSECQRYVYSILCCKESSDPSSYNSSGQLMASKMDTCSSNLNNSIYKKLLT
Particulars: cited from earlier work.

For data set [2] the following is noted: guinea pig thrombosis model; cited from earlier work.
For data set [3], the system named is platelets in whole blood activated by PAR-1 thrombin receptor activating peptide (TRAP-1). Particulars: expected level of inhibition provided, cited from earlier work.
The conditions of data set [4]: rat balloon injury model; cited from earlier work.
The conditions of data set [5]: rabbit subarachnoid hemorrhage model; cited from earlier work.
The test system of data set [6] is platelets in whole blood activated by PAR-1 thrombin receptor activating peptide (TRAP-1). Kind of data set: VERIFYNOW IIb/IIIa Assay, dose-dependent platelet inhibition with TRAP-1 as platelet activator. Format: cell-based, human. Particulars: TRAP-1 3.7 μM; for % Inhibition, Average: Average of four human donors; for % Inhibition (platelet inhibition relative to baseline): whole blood, 30 min 37°C. The source says: The VERIFYNOW™ System instrument is a turbidometric based optical detection system that measures platelet induced aggregation as an increase in light transmittance. The system includes an analyzer, disposable cartridge and controls. The cartridge contains reagents based on microparticle agglutination technology. The quality control system includes an electronic control, two levels of assayed “wet” controls (WQC), an in-cartridge humidity sensor, an in-packaging temperature indicator, and a test for concurrence of two assay channels. […] For use in the present methods the test cartridge of the system contains a lyophilized preparation comprising particles with passively bound GPIIb/IIIa receptor ligand, a thrombin receptor activator, and buffer. The patient sample is usually citrated whole blood, which is automatically dispensed from the blood collection tube into the cartridge by the analyzer, with no blood handling required by the user. The interaction is monitored by the infrared absorbency characteristics of the particles. As the particles interact with the platelets, the agglutination of the particles is measured through the optical system of the VERIFYNOW™ instrument. The agglutination is detected as an increase in the transmission of infrared light through the sample.
An experiment was conducted to determine dose-dependent platelet inhibition by the PAR-1 antagonist E5555 (Eisai Co., Ltd.) using the VERIFYNOW™ IIb/IIIa Assay (Accumetrics, Inc., San Diego, Calif.) and PAR-1 thrombin receptor activating peptide (TRAP-1) as the platelet activator.
Dose response testing was performed with TRAP-1 at 3.7 μM. E5555 was used at final concentrations of 30 ng/ml, 10 ng/ml, 5.0 ng/ml and 1.0 ng/ml. 20 μL of each stock solution was spiked into 2.0 ml of whole blood (1:100 dilution) and mixed carefully to prevent hemolysis. After mixing, the blood samples were incubated for 30 min at 37° C. prior to platelet inhibition test.
Blood samples from four human donors were run in duplicate at baseline and for each of the four E5555 concentrations. As one might have expected, there was donor-to-donor variability in the levels of platelet inhibition measured at a given concentration of E5555. Based on the expected levels of inhibition at each concentration of E5555 provided, the actual results were on average slightly lower than expected across the four donors.

Data set [7] relates to IL-6, CD40 ligand and P-selectin. As to conditions: human cells; cited from earlier work.
In data set [8] the target is T2, platelet thrombin receptors (Homo sapiens, UniProt P25116).
T2 construct: host or cells: platelets
T2 sequence (P25116 22-425): T1 sequence (P25116 22-425)
As to conditions: receptors activated by either thrombin or TRAP-1; cited from earlier work.

Where two headings read alike, the source gives them in different places.

In the case of `CCOC(=O)N[C@@H]1CC[C@@H]2[C@@H](C1)C[C@H]1C(=O)O[C@H](C)[C@H]1[C@H]2/C=C/c1ccc(-c2cccc(F)c2)cn1` [SCH 530348], in the data set with platelet aggregation, the “inhibition of platelet aggregation” value is listed as “sustained, dose-dependent, specific agonist-induced inhibition of platelet aggregation”. Moreover, the “bleeding time and coagulation times” value in data set [1] is recorded as “no increase in bleeding time or prolongation in coagulation times”. In addition, the “inhibition of the PAR-1 thrombin receptor” value at PAR-1 thrombin receptor is “potent inhibitor”.
Turning to `CCOc1cc2c(c(F)c1OCC)C(=N)N(CC(=O)c1cc(N3CCOCC3)c(OC)c(C(C)(C)C)c1)C2` [E5555], the anti-thrombotic effect entry in data set [2] is “anti-thrombotic effect”. The “% Inhibition, Expected” value in data set [3] (1 ng/ml E5555) is listed as 10-50%; in [3] (5 ng/ml E5555), 40-80%; in [3] (10 ng/ml E5555), 70-100%; in data set [3] (30 ng/ml E5555), 100%. Besides, the “effect on neointima hyperplasia” value in data set [4] is listed as “inhibitory effects”. The “effect on thrombin-induced contractile response” value in [5] was “inhibitory effects”. Besides, the “% Inhibition, Average” value in data set [6] (1 ng/ml E5555) is 5%; in [6] (5 ng/ml E5555) it was 30%; in [6] (10 ng/ml E5555), 57%; in data set [6] (30 ng/ml E5555) it was 86%. The “% Inhibition (platelet inhibition relative to baseline)” value in data set [6] (Donor ID: 60, 1 ng/ml E5555) is 7%; in [6] (Donor ID: 60, 5 ng/ml E5555), 17%; in data set [6] (Donor ID: 60, 10 ng/ml E5555), 46%; in data set [6] (Donor ID: 60, 30 ng/ml E5555), 82%; in data set [6] (Donor ID: 75, 1 ng/ml E5555) it was −1%; in data set [6] (Donor ID: 75, 5 ng/ml E5555) it was 15%. Further, the “% Inhibition (platelet inhibition relative to baseline)” value in data set [6] (Donor ID: 75, 10 ng/ml E5555) was 39%; in data set [6] (Donor ID: 75, 30 ng/ml E5555), 78%; in data set [6] (Donor ID: 126, 1 ng/ml E5555), 5%; in [6] (Donor ID: 126, 5 ng/ml E5555) it was 51%; in [6] (Donor ID: 126, 10 ng/ml E5555) it was 77%; in data set [6] (Donor ID: 126, 30 ng/ml E5555) it was 97%. Further, the “% Inhibition (platelet inhibition relative to baseline)” value stood at 7% in data set [6] (Donor ID: 137, 1 ng/ml E5555); 35% in [6] (Donor ID: 137, 5 ng/ml E5555); 66% in data set [6] (Donor ID: 137, 10 ng/ml E5555); 88% in data set [6] (Donor ID: 137, 30 ng/ml E5555). Further, in data set [7], the “effect on thrombin-induced release or expression of inflammatory markers (IL-6, CD40 ligand, P-selectin)” value is listed as “inhibitory effects”.
“Phe-Leu-Leu-Arg-Asn (FLLRN; printed: Phe-Leu-Leu-Arg-Asn) [truncated TRAP-1 pentapeptide]”: the “antagonism of platelet thrombin receptors” value in data set [8] is “weak antagonist”.
